One molecule from paper PMC9720979, “Activation of Piezo1 downregulates renin in juxtaglomerular cells and contributes to blood pressure homeostasis” (Cell & Bioscience, 2022) can be followed below.

The experiment deals with T1, Piezo1 (Mus musculus, UniProt E2JF22).
T1 construct: endogenous full-length channel in mouse juxtaglomerular cell line As4.1 (ATCC CRL2193); homotrimer
Briefly: Fluo-4 calcium imaging in As4.[…] cells, Hill fit. The format is cell-based. The note with it: agonist; native As4.1 cells, HBSS with extracellular Ca2+; no added modulator.

T1 sequence (E2JF22 whole entry): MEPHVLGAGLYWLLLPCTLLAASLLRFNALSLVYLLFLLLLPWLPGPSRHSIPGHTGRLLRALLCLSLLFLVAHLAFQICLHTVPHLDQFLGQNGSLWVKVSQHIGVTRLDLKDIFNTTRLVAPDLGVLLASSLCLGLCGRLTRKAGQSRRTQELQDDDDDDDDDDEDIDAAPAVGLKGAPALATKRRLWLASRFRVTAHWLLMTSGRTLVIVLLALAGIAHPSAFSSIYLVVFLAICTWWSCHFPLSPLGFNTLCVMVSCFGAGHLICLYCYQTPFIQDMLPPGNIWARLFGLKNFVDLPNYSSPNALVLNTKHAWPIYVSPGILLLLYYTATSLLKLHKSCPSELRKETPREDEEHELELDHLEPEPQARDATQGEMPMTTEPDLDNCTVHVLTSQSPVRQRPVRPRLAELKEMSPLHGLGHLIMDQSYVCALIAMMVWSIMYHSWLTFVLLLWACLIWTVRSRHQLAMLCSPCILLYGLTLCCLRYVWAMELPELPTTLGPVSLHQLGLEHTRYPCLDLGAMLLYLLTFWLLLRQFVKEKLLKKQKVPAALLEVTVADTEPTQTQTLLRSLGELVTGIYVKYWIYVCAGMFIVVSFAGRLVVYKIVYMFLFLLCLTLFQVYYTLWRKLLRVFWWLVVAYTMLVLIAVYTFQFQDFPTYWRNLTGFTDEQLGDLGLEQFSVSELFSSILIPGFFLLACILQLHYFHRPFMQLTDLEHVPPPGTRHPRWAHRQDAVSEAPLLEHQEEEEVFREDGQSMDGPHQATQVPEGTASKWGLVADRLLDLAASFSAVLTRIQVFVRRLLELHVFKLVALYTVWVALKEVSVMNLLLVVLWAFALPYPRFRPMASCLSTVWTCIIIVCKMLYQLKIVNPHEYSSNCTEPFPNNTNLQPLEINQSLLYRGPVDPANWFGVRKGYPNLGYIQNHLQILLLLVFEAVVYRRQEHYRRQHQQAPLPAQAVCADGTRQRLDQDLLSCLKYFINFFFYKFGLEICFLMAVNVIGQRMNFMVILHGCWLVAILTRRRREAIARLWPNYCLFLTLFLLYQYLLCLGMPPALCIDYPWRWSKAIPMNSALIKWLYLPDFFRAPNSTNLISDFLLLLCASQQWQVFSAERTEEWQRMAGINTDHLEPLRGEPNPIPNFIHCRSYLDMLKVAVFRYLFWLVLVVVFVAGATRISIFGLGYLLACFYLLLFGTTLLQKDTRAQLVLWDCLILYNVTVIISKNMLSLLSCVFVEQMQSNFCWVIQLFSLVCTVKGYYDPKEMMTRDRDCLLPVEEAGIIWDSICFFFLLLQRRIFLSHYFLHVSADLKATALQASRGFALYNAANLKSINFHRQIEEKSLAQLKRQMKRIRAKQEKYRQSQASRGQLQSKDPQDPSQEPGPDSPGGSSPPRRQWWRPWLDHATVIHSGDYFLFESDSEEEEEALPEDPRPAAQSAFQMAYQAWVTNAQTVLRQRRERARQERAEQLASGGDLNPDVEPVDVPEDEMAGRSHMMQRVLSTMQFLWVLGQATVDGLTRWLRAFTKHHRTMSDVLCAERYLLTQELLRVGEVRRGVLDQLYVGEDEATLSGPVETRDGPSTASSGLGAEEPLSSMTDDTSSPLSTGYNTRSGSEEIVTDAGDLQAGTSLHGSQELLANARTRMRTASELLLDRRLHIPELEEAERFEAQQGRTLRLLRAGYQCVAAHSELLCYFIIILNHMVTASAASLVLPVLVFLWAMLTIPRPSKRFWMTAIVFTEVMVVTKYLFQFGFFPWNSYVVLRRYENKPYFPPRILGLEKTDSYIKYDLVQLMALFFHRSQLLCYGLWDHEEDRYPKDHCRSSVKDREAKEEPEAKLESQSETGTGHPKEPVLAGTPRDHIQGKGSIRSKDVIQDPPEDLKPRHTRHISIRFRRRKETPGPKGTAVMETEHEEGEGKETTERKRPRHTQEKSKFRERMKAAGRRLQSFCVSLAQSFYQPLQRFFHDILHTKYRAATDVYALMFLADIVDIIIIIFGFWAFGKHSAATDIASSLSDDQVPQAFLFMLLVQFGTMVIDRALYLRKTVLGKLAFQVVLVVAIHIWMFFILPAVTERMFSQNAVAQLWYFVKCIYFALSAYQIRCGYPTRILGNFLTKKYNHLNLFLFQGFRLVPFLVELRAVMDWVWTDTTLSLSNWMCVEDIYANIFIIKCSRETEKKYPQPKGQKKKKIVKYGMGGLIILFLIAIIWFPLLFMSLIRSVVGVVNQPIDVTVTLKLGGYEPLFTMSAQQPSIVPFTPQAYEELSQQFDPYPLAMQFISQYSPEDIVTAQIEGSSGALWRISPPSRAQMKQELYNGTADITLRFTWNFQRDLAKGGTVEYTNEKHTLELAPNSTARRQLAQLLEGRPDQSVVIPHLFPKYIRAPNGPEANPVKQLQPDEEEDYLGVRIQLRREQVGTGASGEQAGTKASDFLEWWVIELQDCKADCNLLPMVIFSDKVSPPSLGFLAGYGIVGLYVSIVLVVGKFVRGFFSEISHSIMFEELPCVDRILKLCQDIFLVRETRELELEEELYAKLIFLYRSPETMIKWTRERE

Regarding `Clc1cccc(Cl)c1CSc1nnc(-c2cnccn2)s1` [Yoda1], the EC50 (commonly the concentration giving half of the maximal effect) worked out at 7.68 µM.
